According to ChEMBL document CHEMBL1926671, “3D-Quantitative structure-activity relationship and docking studies of the tachykinin NK3 receptor” (Bioorg Med Chem Lett, 2011):

Target: T1, Neuromedin-K receptor (Homo sapiens, UniProt P29371)
T1 sequence (P29371 whole entry): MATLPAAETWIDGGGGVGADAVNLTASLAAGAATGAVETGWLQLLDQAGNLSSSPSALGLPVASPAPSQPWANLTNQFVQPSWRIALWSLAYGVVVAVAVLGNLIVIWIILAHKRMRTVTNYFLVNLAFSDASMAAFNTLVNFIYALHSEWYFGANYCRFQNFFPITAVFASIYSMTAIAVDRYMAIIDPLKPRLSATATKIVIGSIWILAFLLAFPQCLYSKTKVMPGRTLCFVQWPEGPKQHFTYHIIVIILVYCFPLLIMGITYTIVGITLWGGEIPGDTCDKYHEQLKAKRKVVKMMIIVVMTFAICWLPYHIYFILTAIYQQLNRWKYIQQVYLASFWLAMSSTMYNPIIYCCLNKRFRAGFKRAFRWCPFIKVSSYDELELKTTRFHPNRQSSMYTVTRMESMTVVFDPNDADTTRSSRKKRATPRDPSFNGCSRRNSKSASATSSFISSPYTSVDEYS
Test: Binding affinity to human NK3 receptor expressed in CHO cells
Assay type: cell-based

CCCCC(NC(=O)c1cc(-c2ccccc2)nc2ccccc12)c1ccccc1 (stereo unspecified) showed a Ki of 158 nM.
